From patent US11702430B2, “Aza-benzothiophene compounds as STING agonists” (Merck Sharp & Dohme LLC, priority 2018, dated 2023) come the findings set out here.

The term EC50 denotes the midpoint of the concentration-response curve.

One experiment has as its target T1, full-length HAQ STING (Homo sapiens, UniProt Q86WV6, G230A/H232R/R293Q/R71H).
T1 construct: made in house; host or cells: Trichoplusia ni (Hi-Five) insect cells, baculovirus; crude membrane preparation
As to the kind of experiment: 3H-cGAMP filtration binding assay (HAQ STING). Conditions: for EC50: competition with tritiated cGAMP ligand, HAQ STING membrane. From the text: The ability of compounds to bind STING is quantified by the ability to compete with tritiated cGAMP ligand for human STING receptor membrane using a radioactive filter-binding assay. The binding assay employs STING receptor obtained from Hi-Five cell membranes overexpressing full-length HAQ STING prepared in-house and tritiated cGAMP ligand also purified in-house.
The ability of compounds to bind STING is quantified by their ability to compete with tritiated cGAMP ligand for human STING receptor membrane using a radioactive filter-binding assay. The binding assay employs STING receptor obtained from Trichoplusia ni cell membranes (T. ni; Expression Systems, cat #94-002F, www.expressionsystems.com) overexpressing full-length HAQ STING and tritiated cGAMP ligand.
The basic HAQ STING filtration assay protocol is as follows:
The compounds were serially titrated by the Hamilton STARPlus CORE in a 96-well plate (Greiner, #651201) using a 1:3 ten-point dose response format. After compound preparation, a 2.2 ug/ml working concentration of STING membrane (SEQ. ID. No. 1) was prepared by diluting concentrated membrane into assay buffer (lx PBS; Invitrogen #SH30028.02) and douncing 7× using a manual tissue homogenizer (Wheaton, #357546). 148 uL of prepared membrane was then manually added to each well of a 96-well deep-well polypropylene plate (Fisher Scientific, #12-566-121). Following membrane addition, 2 uL of either titrated test compound, DMSO control (Sigma #276855), or cold cGAMP control was added to the appropriate wells using a BIOMEK FX. Compound and membrane then preincubated for 60 min at RT to allow compound binding to equilibrate. Following equilibration, 8 nM of [^3H] c-GAMP ligand was prepared by diluting into assay buffer, and 50 uL of this working stock was then manually added to each well of the assay plate. Plates were then incubated at RT for 60 min, and the contents of each assay plate were then filtered through a 96-well GF/B filter plate (PerkinElmer, #6005250) using a TOMTEC MACH III Cell Harvester equipped with 20 mM HEPES buffer (Fisher Scientific, #BP299500). The filter plates were then dried at 55° C. for 30 min using a pressurized oven before 30 uL of ULTIMA GOLD F scintillate was added to each well. Tritium levels for each reaction well were then measured using a PerkinElmer TopCount plate reader.
After normalization to controls, the percent activity for each compound concentration was calculated by measuring the amount of remaining radioactivity. The plot of percent activity versus the log of compound concentration was fit with a 4-parameter dose response equation to calculate EC50 values.

Experiment [1] relates to IFN-β secretion in THP1 cells. The experiment in a line: IFN-β secretion in THP1 cell culture (5 h). In kind it is cell-based. Conditions: Homo sapiens, THP-1, 5 h, 30 μM compound, cGAMP at 30 μM set at 100%, read-out: % Effect at 30 μM relative to 2′3′-cGAMP. As for the experimental part: The ability of compounds to stimulate the secretion of interferon-beta from THP1 cells was measured using a human IFN-β AlphaLISA kit (Perkin Elmer, Cat. No. AL265F). The basic protocol is as follows:
A Labcyte Echo 550 acoustic dispenser was used to transfer 120 nL of compound dissolved in DMSO into the wells of an empty, sterile 384-well microplate, (Corning, Cat. No. 3712). THP1 cells (American Type Culture Collection, Cat. No. TIB202) previously frozen in Recovery Medium (Life Technologies, Cat. No. 12648-010) were thawed and immediately diluted 10-fold into 37° C. assay medium (RPMI 1640+L-Glutamine & phenol red, Life Technologies, Cat. No. 11875-085; 0.5% heat inactivated fetal bovine serum, Sigma Aldrich, Cat. No. F4135; 1 mM Sodium Pyruvate, Life Technologies, Cat. No. 11360-070; lx non-essential amino acids; Life Technologies, Cat. No. 11140-050). The cell viability and count was ascertained using a Beckman Coulter V-Cell XR cell counter. The cells suspension was centrifuged at 200×g for 5 min at RT. Cells were resuspended to a density of 0.8×10^6/mL in 37° C. assay medium. Subsequent liquid transfers were performed using either a Matrix electronic multichannel pipette or an Agilent Bravo Automated Liquid Handling Platform.
The assay was started by dispensing 404, of the previously prepared cell suspension into the wells of the plate containing compounds. After 5 h incubation at 37° C., 5% CO2 in a humidified atmosphere, the plate of cells and compounds was centrifuged at 200×g for 5 min at RT. From each well, 54, of supernatant was transferred into corresponding wells of a white 384-well plate (Perkin Elmer, Cat. No. 6005620). To these supernatant-containing wells was added 10 μL of 5× Anti-Analyte Acceptor beads (50 μg/mL of AlphaLISA HiBlock Buffer) and incubated for 30 min at RT while shaking on an orbital plate shaker. To each well was added 104, of 5× Biotinylated Antibody Anti-analyte (5 nM in AlphaLISA HiBlock Buffer) and incubated on an orbital plate shaker for 60 min at RT or overnight at 4° C. To each well was added 254, of 2× SA-Donor beads (80 μg/mL in AlphaLISA HiBlock Buffer) and incubated for 30-45 min at RT in the dark while shaking on an orbital plate shaker. The plate was then read on a Perkin Elmer Envision (λex=680 nm, λem=[…]). The percent effect of the AlphaLISA signal at each compound concentration was calculated based on 30 uM cGAMP positive controls and 0.3% DMSO negative controls. The plot of percent effect versus the log of compound concentration was fit with a 4-parameter concentration response equation to calculate EC50 values. The test compounds were tested at concentrations 30000, 10000, 3333, 1111, 370.4, 123.4, 41.2, 13.7, 4.6, and 1.5 nM with 0.3% residual DMSO. The control compound, cGAMP was tested at concentrations 100000, 33333, 11111, 3704, 1235, 412, 137, 46, and 15 nM with 0.3% residual DMSO.

T1 sequence (Q86WV6 with tags, fused parts or gaps R71H/G230A/H232R/R293Q): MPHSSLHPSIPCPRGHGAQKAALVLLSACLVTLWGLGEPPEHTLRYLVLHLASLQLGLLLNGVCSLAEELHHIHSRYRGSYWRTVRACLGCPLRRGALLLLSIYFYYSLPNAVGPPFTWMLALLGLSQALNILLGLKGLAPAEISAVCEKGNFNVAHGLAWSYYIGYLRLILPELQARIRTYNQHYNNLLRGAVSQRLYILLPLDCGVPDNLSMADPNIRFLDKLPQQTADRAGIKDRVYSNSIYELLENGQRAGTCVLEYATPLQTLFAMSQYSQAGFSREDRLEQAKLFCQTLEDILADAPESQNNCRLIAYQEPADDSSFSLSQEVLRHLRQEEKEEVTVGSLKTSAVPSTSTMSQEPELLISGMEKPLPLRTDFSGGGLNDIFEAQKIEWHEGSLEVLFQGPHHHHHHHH

As for `CCCC(CC(=O)c1cc2nc(OC)c(OC)cc2s1)C(=O)O` (single isomer, unassigned) [Example 13, (R or S)-2-(2-(5,6-Dimethoxythieno[3,2-b]pyridin-2-yl)-2-oxoethyl) pentanoic acid], the “percent reduction in binding of tritiated cGAMP at top concentration” value at full-length HAQ STING (at 20,000 nM (20 uM) compound, HAQ STING) was 7% @ 20,000.

Turning to `COc1cc2cc(C(=O)CCC(=O)O)sc2nc1OC` [Example 5, 4-(5,6-Dimethoxythieno[2,3-b]pyridin-2-yl)-4-oxobutanoic Acid], in experiment [1], the activation at 30 µM came to 146%. Further, a half-maximal effect at full-length HAQ STING (EC50) was put at 5.51 µM.

For `COc1nc2cc(C(=O)CCC(=O)O)sc2cc1Br` [Example 15, 4-(6-Bromo-5-methoxythieno[3,2-b]pyridin-2-yl)-4-oxobutanoic Acid], in experiment [1], the activation at 30 µM is 142%. The EC50 on full-length HAQ STING is 2.45 µM.

For `COc1nc2cc(C(=O)CC(C)C(=O)O)sc2nc1OC` (single isomer, unassigned) [Example 18, (R or S)-4-(2,3-Dimethoxythieno[2,3-b]pyrazin-6-yl)-2-methyl-4-oxobutanoic Acid], in experiment [1], the activation at 30 µM worked out at 77%. This molecule also gave an EC50 on full-length HAQ STING of 4.5 µM.

Regarding `CCC(CC(=O)c1cc2nc(OC)c(OC)cc2s1)C(=O)O` (single isomer, unassigned) [Example 11, (R or S)-4-(5,6-Dimethoxythieno[3,2-b]pyridin-2-yl)-2-ethyl-4-oxobutanoic acid], the EC50 on full-length HAQ STING came out at 17.3 µM. This counts as double-digit micromolar.

`COc1nc2cc(C(=O)CCC(=O)O)sc2nc1OC` [Example 16, 4-(2,3-Dimethoxythieno[2,3-b]pyrazin-6-yl)-4-oxobutanoic Acid]: the activation at 30 µM in experiment [1] was determined as 108%. On full-length HAQ STING, this molecule gave an EC50 of 9.57 µM.

Regarding `COc1cc2sc(C(=O)[C@H]3C[C@H]3C(=O)O)cc2nc1OC` (single isomer, unassigned) [Example 9, Cis-2-(5,6-dimethoxythieno[3,2-b]pyridine-2-carbonyl)cyclopropane-1-carboxylic Acid], in experiment [1], the activation at 30 µM came out at 100%. This molecule also came in with an EC50 at full-length HAQ STING of 1.15 µM.

For the molecule `COc1cc2sc(C(=O)C[C@H](C)C(=O)O)nc2nc1OC` [Example 19, (S)-4-(5,6-Dimethoxythiazolo[4,5-b]pyridin-2-yl)-2-methyl-4-oxobutanoic Acid], the activation at 30 µM in experiment [1] is 14%. This molecule also gave an EC50 on full-length HAQ STING of 10.1 µM.

Regarding `CCCC(CC(=O)c1cc2nc(OC)c(OC)cc2s1)C(=O)O` (single isomer, unassigned) [Example 14, (R or S)-2-(2-(5,6-Dimethoxythieno[3,2-b]pyridin-2-yl)-2-oxoethyl) pentanoic acid], a half-maximal effect on full-length HAQ STING (EC50) was put at 1.39 µM.

Regarding `COc1cc2sc(C(=O)C[C@H](C)C(=O)O)nc2cc1Br` [Example 3, (S)-4-(5-Bromo-6-methoxybenzo[d]thiazol-2-yl)-2-methyl-4-oxobutanoic Acid], in experiment [1], the activation at 30 µM was 11%. In addition, a half-maximal response on full-length HAQ STING (EC50) required 10.6 µM.

With `COc1cc2sc(C(=O)CCC(=O)O)cc2nc1OC` [Example 6], in experiment [1], the activation at 30 µM was found to be 107%. At full-length HAQ STING, this molecule showed an EC50 of 2.44 µM.

As to `COc1cc2sc(C(=O)CC(C)C(=O)O)cc2nc1OC` (single isomer, unassigned) [Example 8, (R or S)-4-(5,6-Dimethoxythieno[3,2-b]pyridin-2-yl)-2-methyl-4-oxobutanoic acid], the EC50 on full-length HAQ STING came out at 1.54 µM.

Take `COc1cc2sc(C(=O)C[C@H](C)C(=O)O)cc2nc1Cl` [Example 10, (S)-4-(5-Chloro-6-methoxythieno[3,2-b]pyridin-2-yl)-2-methyl-4-oxobutanoic Acid]: in experiment [1], the activation at 30 µM came to 70%. Further, the EC50 on full-length HAQ STING worked out at 0.637 µM.

For `COc1cc2sc(C(=O)CC(C)C(=O)O)nc2c(F)c1OC` (stereo not drawn) [Example 4, 4-(4-Fluoro-5,6-dimethoxybenzo[d]thiazol-2-yl)-2-methyl-4-oxobutanoic Acid], the activation at 30 µM in experiment [1] worked out at 19%. In addition, at full-length HAQ STING, a half-maximal effect (EC50) was put at 6.79 µM.

With `COc1cc2nc(C(=O)CCC(=O)O)sc2cc1OC` [Example 1, 4-(5,6-Dimethoxybenzo[d]thiazol-2-yl)-4-oxobutanoic Acid], in experiment [1], the activation at 30 µM was 56%. Also, the EC50 on full-length HAQ STING worked out at 13.3 µM.

For `COc1cc2nc(C(=O)CC(C)C(=O)O)sc2cc1OC` (single isomer, unassigned) [Example 2, 4-(5,6-Dimethoxy-1,3-benzothiazol-2-yl)-2-methyl-4-oxobutanoic Acid], the activation at 30 µM in experiment [1] was determined as 94%. Further, it took 3.29 µM to reach a half-maximal effect on full-length HAQ STING (EC50).

For the molecule `COc1cc2sc(C(=O)CC(C)C(=O)O)cc2nc1OC` (single isomer, unassigned) [Example 7, (R or S)-4-(5,6-Dimethoxythieno[3,2-b]pyridin-2-yl)-2-methyl-4-oxobutanoic acid], in experiment [1], the activation at 30 µM is 55%. This molecule also displayed an EC50 at full-length HAQ STING of 8.76 µM.

In the case of `CCC(CC(=O)c1cc2nc(OC)c(OC)cc2s1)C(=O)O` (single isomer, unassigned) [Example 12, (R or S)-4-(5,6-Dimethoxythieno[3,2-b]pyridin-2-yl)-2-ethyl-4-oxobutanoic acid], it took 1.75 µM to reach a half-maximal effect at full-length HAQ STING (EC50).

Take `CCC(CC(=O)c1cc2nc(OC)c(OC)nc2s1)C(=O)O` (single isomer, unassigned) [Example 17, (R or S)-4-(2,3-Dimethoxythieno[2,3-b]pyrazin-6-yl)-2-ethyl-4-oxobutanoic Acid]: the activation at 30 µM in experiment [1] was found to be 116%. On full-length HAQ STING, this molecule displayed an EC50 of 2.71 µM.
